Reference: patent US7914797B2 (priority 2005, dated 2011)

Molecular target: HLA-A2 on T2 cells (Homo sapiens, UniProt P04439, D140Y/D185E/D98H/E176V/E277Q/G131W/G231S/I119V/I121R/I166T/I218V/L300P/L318F/N151K/N90K/P208A/P217A/Q86G/Q94H/R138H/R169H/T345S)
Assay type: binding

| Sequence | binding of peptide to HLA-A2 on T2 cells |
| --- | --- |
| ELRSRYWAI [NP 380-388] | some low binding capacity, which was not dose dependent |
| LLTEVETYV [M1 3-11] | High and dose dependent binding |
| PKYVKQNTLKLAT [HA 307-319] | some low binding capacity, which was not dose dependent |
| SKAYSNCYPYDVPDYASL [HA 91-108 peptide] | binding capacity only at the higher (100 μM) concentration |
